In PubChem BioAssay (NCI):
Several values for one entry are separate records, joined by “and”; a condition that tells them apart may be missing. Identical values can stand only once.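 Briefly, cells in 96-well plates were exposed to five compound concentrations for 48 h, and endpoints were estimated by linear interpolation. At the GI50, growth is halved. TGI is the concentration that stops growth completely.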

Assays:
Test in all cases: NCI tumour cell line growth inhibition, 48 h
[1] = system: DLD-1 colon
[2] = system: DMS 273 small cell lung
[3] = system: LXFL 529 NSCLC
[4] = system: NCI-H460 lung
[5] = system: KM12 colon
[6] = system: SF-539 CNS
[7] = system: KM20L2 colon
[8] = system: HCT-15 colon
[9] = system: XF 498 CNS
[10] = system: OVCAR-4 ovarian
[11] = system: EKVX NSCLC
[12] = system: SK-OV-3 ovarian
[13] = system: MDA-MB-231 breast
[14] = system: SF-295 CNS
[15] = system: DU-145 prostate
[16] = system: RXF 393 renal

| SMILES | TGI [1] [µM] | TGI [2] [µM] | TGI [3] [µM] | TGI [4] [µM] | TGI [5] [µM] | TGI [6] | TGI [7] [µM] | TGI [8] | TGI [9] | TGI [10] | TGI [11] | TGI [12] [µM] | TGI [13] [µM] | TGI [14] | TGI [15] [µM] | TGI [16] | GI50 [6] [µM] | GI50 [14] [µM] | GI50 [10] [µM] | GI50 [11] [µM] |
| --- | --- | --- | --- | --- | --- | --- | --- | --- | --- | --- | --- | --- | --- | --- | --- | --- | --- | --- | --- | --- |
| CC(C)OP(=O)(OC(C)C)C(=NCCO)NNc1ccc([N+](=O)[O-])cc1 | > 100 | > 100 | > 100 | > 100 | > 100 | > 100 µM | > 100 | > 100 µM | > 100 µM | > 100 µM | > 100 µM | – | – | – | – | – | – | – | – | – |
| O=C(N/N=C(/COc1ccccc1)N=Cc1ccncc1)c1ccncc1 | – | – | – | > 100 | > 100 | > 100 µM | – | > 100 µM | – | > 100 µM | > 100 µM | > 100 | > 100 | > 100 µM | > 100 | > 100 µM | – | – | – | – |
| C=C1C(=O)OC2C1CCC(=C)C1CC(O)C(=C)C12 (configuration not stated) | – | – | – | 36.6 | 30.4 | 35.2 µM | – | 25.1 µM | – | 33.7 µM | 20.3 µM | > 100 | 31.6 | > 100 µM | 29 | 29.9 µM | – | – | – | – |
| Nc1nc(Cl)cc(NCC2(CO)CCCCC2)n1 | – | – | – | > 100 | > 100 | > 100 µM | – | > 100 µM | – | > 100 µM | > 100 µM | > 100 | > 100 | > 100 µM | > 100 | > 100 µM | – | – | – | – |
| CC1CC(=O)Nc2ccc(Cl)cc2N1C(=O)CN1CCC(CCCCN(C)C)CC1 (configuration not stated) | > 100 | > 100 | > 100 | > 100 | – | – | > 100 | > 100 µM | – | > 100 µM | – | > 100 | – | > 100 µM | – | – | – | – | – | – |
| Cc1ccc(S(=O)(=O)NC(=O)C2S(=O)(=O)OCCOS2(=O)=O)cc1 | > 100 | > 100 | > 100 | – | > 100 | > 100 µM | – | – | > 100 µM | > 100 µM | > 100 µM | > 100 | – | > 100 µM | – | – | – | – | – | – |
| COc1ccccc1-n1cnc2c1NC(C)(C)N=C2C(N)=O | – | – | – | > 100 | > 100 | > 100 µM | – | > 100 µM | – | > 100 µM | > 100 µM | > 100 | > 100 | > 100 µM | > 100 | > 100 µM | – | – | – | – |
| CC1=C(C(=O)NNC(=O)Cc2ccccc2)CC(C(=O)NNC(=O)Cc2ccccc2)=C(C)N1 | – | – | – | > 100 | > 100 | > 100 µM | – | > 100 µM | – | > 100 µM | > 100 µM | > 100 | > 100 | > 100 µM | > 100 | > 100 µM | – | – | – | – |
| Cc1nc2cn3c(c2c(=O)[nH]1)CCCCC3 | – | – | – | > 100 | > 100 | > 100 µM | – | > 100 µM | – | > 100 µM | > 100 µM | > 100 | 69.7 | > 100 µM | > 100 | > 100 µM | – | – | – | – |
| CCN(CC)CCNc1c2ccccc2nc2cccc([N+](=O)[O-])c12 | – | 0.0787 | 0.0843 | 0.0186 | – | 0.0472 µM and 0.251 µM | 0.0553 | 0.0205 µM and 0.0398 µM | 0.0569 µM and 0.0196 µM | 0.0289 µM and 0.178 µM | 0.0298 µM and 0.08 µM | 0.0637 | 0.00487 | 0.0342 µM and 0.0643 µM | 0.0146 | 0.0351 µM and 0.0112 µM | 0.107 | 0.015 | 0.0279 | 0.029 |
| CCOC(=O)/C(Br)=C1\OC(=O)c2ccccc2-c2ccccc21 | > 100 | > 100 | 99 | – | > 100 | 73.1 µM | – | > 100 µM | > 100 µM | – | > 100 µM | > 100 | – | > 100 µM | – | – | – | – | – | – |
| COc1ccc(-c2nc(-c3ccc(OC)cc3)n(-c3ccccc3)n2)cc1 | – | – | – | > 100 | > 100 | > 100 µM | – | > 100 µM | – | > 100 µM | > 100 µM | > 100 | > 100 | > 100 µM | > 100 | > 100 µM | – | – | – | – |
| CCN(CC)CC1CCCCN1CC(=O)N1c2cc(Cl)ccc2NC(=O)CC1C (configuration not stated) | > 100 | > 100 | > 100 | > 100 | > 100 | > 100 µM | > 100 | – | > 100 µM | > 100 µM | > 100 µM | > 100 | – | – | – | – | – | – | – | – |
| COc1c(C)c(C/C=C(\C)CC/C=C(\C)CC/C=C(\C)CCC=C(C)C)c(OC)c(OC)c1OC | – | – | – | > 100 | > 100 | > 100 µM | – | > 100 µM | – | > 100 µM | > 100 µM | > 100 | > 100 | > 100 µM | > 100 | > 100 µM | – | – | – | – |
| c1ccc(-c2cnc(SC(c3ccccc3)c3ccccc3)[nH]2)cc1 | – | – | – | 46.8 | > 100 | > 100 µM | – | 38.8 µM | – | > 100 µM | 60 µM | > 100 | > 100 | > 100 µM | > 100 | 78.5 µM | – | – | – | – |
| CCO/C(O)=C(/C(=N)N1CCOCC1)C(=O)Nc1cccc(C(F)(F)F)c1 | – | – | – | > 100 | > 100 | > 100 µM | – | > 100 µM | – | > 100 µM | > 100 µM | > 100 | > 100 | > 100 µM | > 100 | > 100 µM | – | – | – | – |
| O=C1CC(c2ccc(Cl)cc2)C2(C(=O)NC(=S)NC2=O)C(c2ccc(Cl)cc2)C1 (configuration not stated) | – | – | – | 30.5 | 40.1 | 40.9 µM | – | 52.8 µM | – | 37.9 µM | 91.7 µM | 29 | 46.8 | 35.9 µM | > 100 | 29.4 µM | – | – | – | – |
| CCOC(=O)c1c(N2CCCC2)[nH]c(=O)c(C(c2c(O)c(C(=O)OCC)c(N3CCCC3)[nH]c2=O)C(C)C)c1O | – | – | – | > 100 | > 100 | > 100 µM | – | > 100 µM | – | > 100 µM | > 100 µM | > 100 | 64.3 | > 100 µM | > 100 | > 100 µM | – | – | – | – |
| Cc1cc(C)cc(Nc2nnc3n2S(=O)(=O)c2cc(C)c(Cl)cc2S3)c1 | – | – | – | 24.8 | 33.2 | 13.7 µM | – | 28.3 µM | – | > 100 µM | 52.2 µM | > 100 | 33.2 | > 100 µM | 97 | 17.2 µM | – | – | – | – |
